Test results taken from patent US8921273B2, “Substituted pyridazines having herbicidal action” (BASF SE, priority 2010, dated 2014).

Assays:
Experiment in all cases: greenhouse herbicidal activity, post-emergence treatment
Conditions in all cases: application rate 0.5 kg/ha, scale from 0 to 100
CHEAL = format: in vivo, Chenopodium album
Source text: (§1) The seeds of the test plants were sown separately for each species. For the post-emergence treatment, the test plants were first grown to a height of 3 to 15 cm, depending on the plant habit, and only then treated with the active ingredients which had been suspended or emulsified in water. For this purpose, the test plants were either sown directly and grown in the same containers, or they were first grown separately as seedlings and transplanted into the test containers a few days prior to treatment. Depending on the species, the plants were kept at 10-25° C. or 20-35° C. The test period extended over 2 to 4 weeks. During this time, the plants were tended, and their response to the individual treatments was evaluated. Evaluation was carried out using a scale from 0 to 100. 100 means no emergence of the plants, or complete destruction of at least the aerial moieties, and 0 means no damage, or normal course of growth. A good herbicidal activity is given at values of at least 70 and a very good herbicidal activity is given at values of at least 85. The plants used in the greenhouse experiments belonged to the following species: [table]

ECHCG = format: in vivo, Echinochloa crus-galli
Source text: as §1

GALAP = format: in vivo, Galium aparine
Source text: as §1

AMARE = format: in vivo, Amaranthus retroflexus
Source text: as §1

Row | SMILES | herbicidal activity against CHEAL (CHEAL) | herbicidal activity against ECHCG (ECHCG) | herbicidal activity against GALAP (GALAP) | herbicidal activity against AMARE (AMARE)
1 | O=c1c(-c2cc(Cl)cc(N3CCOCC3)c2C(F)(F)F)c(O)c2nccnc2n1CC(F)F [I-1, 7-[5-chloro-3-morpholino-2-(trifluoromethyl)phenyl]-5-(2,2-difluoroethyl)-8-hydroxy-pyrido[2,3-b]pyrazin-6-one] | very good herbicidal activity (a very good herbicidal activity is given at values of at least 85) | very good herbicidal activity (a very good herbicidal activity is given at values of at least 85) | – | –
2 | O=c1c(-c2cccc(C3=NOCC3)c2C(F)(F)F)c(O)c2nccnc2n1CC(F)F [I-2, 5-(2,2-difluoroethyl)-7-[3-(4,5-dihydroisoxazol-3-yl)-2-(trifluoromethyl)phenyl]-8-hydroxy-pyrido[2,3-b]pyrazin-6-one] | – | – | very good herbicidal activity (a very good herbicidal activity is given at values of at least 85) | very good herbicidal activity (a very good herbicidal activity is given at values of at least 85)
